Target: T1, human M1 receptor (hCHRM1) (Homo sapiens, UniProt P11229)
T1 construct: expressed in transfected cells; host or cells: CHO-K1
T1 sequence (P11229 1-460): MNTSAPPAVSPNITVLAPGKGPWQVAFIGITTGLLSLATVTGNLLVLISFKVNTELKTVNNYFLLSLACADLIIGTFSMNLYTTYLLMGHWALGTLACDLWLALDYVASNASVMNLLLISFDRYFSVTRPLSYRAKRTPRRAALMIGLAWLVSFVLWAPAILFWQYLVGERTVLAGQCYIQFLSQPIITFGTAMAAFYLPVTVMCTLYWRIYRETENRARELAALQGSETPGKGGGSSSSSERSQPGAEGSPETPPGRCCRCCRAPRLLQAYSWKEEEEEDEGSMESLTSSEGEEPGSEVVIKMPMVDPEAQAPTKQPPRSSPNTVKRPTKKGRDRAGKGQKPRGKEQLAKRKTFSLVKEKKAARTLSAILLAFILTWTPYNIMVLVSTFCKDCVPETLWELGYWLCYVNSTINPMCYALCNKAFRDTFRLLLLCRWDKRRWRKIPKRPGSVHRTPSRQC
Experiment: Measurement of M1 receptor positive allosteric modulator (M1PAM) activity, calcium fluorescence (FLIPRtetra) in CHO-K1 cells in the presence of acetylcholine at EC20
Type: cell-based
Settings: in the presence of acetylcholine at EC20 (final 0.6 nM), CHO-K1 cells expressing hCHRM1; for EC50: inflection point of M1PAM activity, read-out: IP value; for activity (%) at 10 μM: test compound 10 μM
How it was run: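 PAM activity was measured as calcium flux by FLIPRtetra over 1 min after co-addition of compound and EC20 acetylcholine (final 0.6 nM) to Fluo-4-loaded hCHRM1 CHO-K1 cells. The response was scaled between DMSO (0%) and 1 μM acetylcholine (100%), and the inflection point of the concentration curve gives the IP value.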

EC50 [µM] | activity (%) at 10 μM [%] | Compound
0.022 | 106 | Cn1cc(-c2ccc(CN3Cc4ccnc(OCc5ccc(F)cc5F)c4C3=O)cc2)nn1 [Example 336, 4-((2,4-difluorobenzyl)oxy)-2-(4-(1-methyl-1H-1,2,3-triazol-4-yl)benzyl)-1,2-dihydro-3H-pyrrolo[3,4-c]pyridin-3-one]
0.032 | 93 | NC(=O)c1ccc(CN2Cc3ccnc(Oc4ccc(CC(F)(F)F)cc4F)c3C2=O)cc1F [Example 459, 2-fluoro-4-((4-(2-fluoro-4-(2,2,2-trifluoroethyl)phenoxy)-3-oxo-1,3-dihydro-2H-pyrrolo[3,4-c]pyridin-2-yl)methyl)benzamide]
0.045 | 102 | CCCc1ccc(Oc2nccc3c2C(=O)N(Cc2ccc(C(N)=O)c(F)c2)C3)c(F)c1 [Example 452, 2-fluoro-4-((4-(2-fluoro-4-propylphenoxy)-3-oxo-1,3-dihydro-2H-pyrrolo[3,4-c]pyridin-2-yl)methyl)benzamide]
0.007 | 120 | Cn1cc(-c2ccc(CN3Cc4cccc(O[C@H]5CCCC[C@@H]5O)c4C3=O)s2)cn1 (relative stereo) [Example 28, 7-((trans-2-hydroxycyclohexyl)oxy)-2-((5-(1-methyl-1H-pyrazol-4-yl)-2-thienyl)methyl)isoindolin-1-one]
0.007 | 102 | Cn1cc(-c2ccc(CN3Cc4cccc(O[C@H]5CCCC[C@@H]5O)c4C3=O)cc2)cn1 (relative stereo) [Example 1, 7-((trans-2-hydroxycyclohexyl)oxy)-2-(4-(1-methyl-1H-pyrazol-4-yl)benzyl)isoindolin-1-one]
0.12 | 118 | Cn1cc(-c2ccc(CN3Cc4cccc(OCCO)c4C3=O)cc2)cn1 [Example 17, 7-(2-hydroxyethoxy)-2-(4-(1-methyl-1H-pyrazol-4-yl)benzyl)isoindolin-1-one]
0.048 | 92 | O=C1c2c(ccnc2O[C@H]2CCCC[C@@H]2O)CN1Cc1ccc(Cl)s1 (relative stereo) [Example 401, 2-((5-chloro-2-thienyl)methyl)-4-((trans-2-hydroxycyclohexyl)oxy)-1,2-dihydro-3H-pyrrolo[3,4-c]pyridin-3-one]
0.01 | 99 | Cc1cc(-c2ccc(CN3Cc4ccnc(Oc5ccc(C#N)cc5F)c4C3=O)cc2)ccn1 [Example 368, 3-fluoro-4-((2-(4-(2-methylpyridin-4-yl)benzyl)-3-oxo-2,3-dihydro-1H-pyrrolo[3,4-c]pyridin-4-yl)oxy)benzonitrile]
0.01 | 104 | Cn1ccc(-c2ccc(CN3Cc4ccnc(Oc5ccc(C(C)(C)O)cc5F)c4C3=O)cc2)n1 [Example 413, 4-(2-fluoro-4-(2-hydroxypropan-2-yl)phenoxy)-2-(4-(1-methyl-1H-pyrazol-3-yl)benzyl)-1,2-dihydro-3H-pyrrolo[3,4-c]pyridin-3-one]
0.012 | 93 | NC(=O)c1ccc(CN2Cc3ccnc(Oc4ccc(CC(F)(F)F)cc4F)c3C2=O)cc1 [Example 458, 4-((4-(2-fluoro-4-(2,2,2-trifluoroethyl)phenoxy)-3-oxo-1,3-dihydro-2H-pyrrolo[3,4-c]pyridin-2-yl)methyl)benzamide]
0.01 | 97 | Cc1nn(C)cc1-c1ccc(CN2Cc3ccnc(OCC(F)(F)c4ccccn4)c3C2=O)c(F)c1 [Example 347, 4-(2,2-difluoro-2-(pyridin-2-yl)ethoxy)-2-(4-(1,3-dimethyl-1H-pyrazol-4-yl)-2-fluorobenzyl)-1,2-dihydro-3H-pyrrolo[3,4-c]pyridin-3-one]
0.0014 | 86 | Cn1cc(-c2ccc(CN3Cc4ccnc(Oc5c(F)cc(C#N)cc5F)c4C3=O)c(F)c2)cn1 [Example 386, 3,5-difluoro-4-((2-(2-fluoro-4-(1-methyl-1H-pyrazol-4-yl)benzyl)-3-oxo-2,3-dihydro-1H-pyrrolo[3,4-c]pyridin-4-yl)oxy)benzonitrile]
0.022 | 100 | Cn1ccc(-c2ccc(CN3Cc4ccnc(OCC5CCCCO5)c4C3=O)cc2)n1 (stereo not drawn) [Example 253, 2-(4-(1-methyl-1H-pyrazol-3-yl)benzyl)-4-((tetrahydro-2H-pyran-2-yl)methoxy)-1,2-dihydro-3H-pyrrolo[3,4-c]pyridin-3-one]
0.013 | 101 | Cn1cc(-c2ccc(CN3Cc4cccc(O[C@H]5CCC[C@@H]5O)c4C3=O)cc2)cn1 (relative stereo) [Example 4, 7-((trans-2-hydroxycyclopentyl)oxy)-2-(4-(1-methyl-1H-pyrazol-4-yl)benzyl)isoindolin-1-one]
0.27 | 93 | Cc1nn(C)cc1-c1ccc(CN2Cc3cccc(OCC45CCC(CC4)O5)c3C2=O)cc1 [Example 354, 2-(4-(1,3-dimethyl-1H-pyrazol-4-yl)benzyl)-7-((7-oxabicyclo[2.2.1]hept-1-yl)methoxy)isoindolin-1-one]
0.057 | 101 | Cn1ccc(-c2ccc(CN3Cc4ccnc(OCC5CCCO5)c4C3=O)cc2)n1 (single isomer, unassigned) [Example 245, 2-(4-(1-methyl-1H-pyrazol-3-yl)benzyl)-4-((tetrahydrofuran-2-yl)methoxy)-1,2-dihydro-3H-pyrrolo[3,4-c]pyridin-3-one]
0.054 | 103 | Cn1cc(-c2ccc(CN3Cc4cccc(Oc5c(F)cc([N+](=O)[O-])cc5Cl)c4C3=O)cc2)cn1 [Example 10, 7-(2-chloro-6-fluoro-4-nitrophenoxy)-2-(4-(1-methyl-1H-pyrazol-4-yl)benzyl)isoindolin-1-one]
0.033 | 98 | Cn1cc(-c2ccc(CN3Cc4cccc(Oc5c(F)cc(C#N)cc5F)c4C3=O)cn2)cn1 [Example 378, 3,5-difluoro-4-((2-((6-(1-methyl-1H-pyrazol-4-yl)pyridin-3-yl)methyl)-3-oxo-2,3-dihydro-1H-isoindol-4-yl)oxy)benzonitrile]
0.044 | 118 | O=C(NCC1CCCO1)c1ccc(CN2Cc3cccc(OCC4CCCO4)c3C2=O)cc1 (stereo not drawn) [Example 38, 4-((1-oxo-7-((tetrahydrofuran-2-yl)methoxy)-1,3-dihydro-2H-isoindol-2-yl)methyl)-N-((tetrahydrofuran-2-yl)methyl)benzamide]
0.047 | 106 | Cn1cc(-c2ccc(CN3Cc4cccc(OCC(=O)N5CCCCC5)c4C3=O)cc2)cn1 [Example 16, 2-(4-(1-methyl-1H-pyrazol-4-yl)benzyl)-7-(2-oxo-2-(piperidin-1-yl)ethoxy)isoindolin-1-one]
0.014 | 134 | Cn1ccc(-c2ccc(CN3Cc4cccc(O[C@H]5CCCC[C@@H]5O)c4C3=O)cc2)n1 (relative stereo) [Example 35, 7-((trans-2-hydroxycyclohexyl)oxy)-2-(4-(1-methyl-1H-pyrazol-3-yl)benzyl)isoindolin-1-one]
0.047 | 116 | O=C1c2c(ccnc2OCC2CCCO2)CN1Cc1ccc(-c2ccnc(C(F)(F)F)c2)cc1 (stereo not drawn) [Example 325, 4-((tetrahydrofuran-2-yl)methoxy)-2-(4-(2-(trifluoromethyl)pyridin-4-yl)benzyl)-1,2-dihydro-3H-pyrrolo[3,4-c]pyridin-3-one]
0.0066 | 101 | O=C1c2c(ccnc2O[C@@H]2CCCC[C@H]2O)CN1Cc1c(F)cc(F)cc1F (single isomer, unassigned) [Example 315, 4-((trans-2-hydroxycyclohexyl)oxy)-2-(2,4,6-trifluorobenzyl)-1,2-dihydro-3H-pyrrolo[3,4-c]pyridin-3-one]
0.012 | 107 | NC(=O)c1ccc(CN2Cc3ccnc(Oc4ccc(C(F)(F)F)cc4F)c3C2=O)cc1 [Example 422, 4-((4-(2-fluoro-4-(trifluoromethyl)phenoxy)-3-oxo-1,3-dihydro-2H-pyrrolo[3,4-c]pyridin-2-yl)methyl)benzamide]
0.041 | 106 | CCNC(=O)c1ccc(CN2Cc3ccnc(Oc4ccc(C(F)(F)F)cc4F)c3C2=O)cc1F [Example 436, N-ethyl-2-fluoro-4-((4-(2-fluoro-4-(trifluoromethyl)phenoxy)-3-oxo-1,3-dihydro-2H-pyrrolo[3,4-c]pyridin-2-yl)methyl)benzamide]
0.0056 | 100 | Cc1cc(-c2ccc(CN3Cc4ccnc(OCC5CCCO5)c4C3=O)cc2)ccn1 (stereo not drawn) [Example 80]

Compound | EC50 [µM] | activity (%) at 10 μM [%]
CCC(O)COc1nccc2c1C(=O)N(Cc1ccc(-c3cn(C)nc3C)cc1)C2 (single isomer, unassigned) [Example 276, 2-(4-(1,3-dimethyl-1H-pyrazol-4-yl)benzyl)-4-(2-hydroxybutoxy)-1,2-dihydro-3H-pyrrolo[3,4-c]pyridin-3-one] | 0.0036 | 99

From patent US9777005B2 (Takeda Pharmaceutical Company Limited, priority 2012, dated 2017)
